From patent US11633458B2, “Compositions and methods for treating melanoma” (University of Virginia Patent Foundation, priority 2013, dated 2023)

How the values were obtained:
[1] = test system: melanoma cell lines VMM1, DM13, DM93 and DM122; experiment: Intracellular staining of chemokines CCL2-5, CXCL9, CXCL12 by flow cytometry after overnight TLR agonist stimulation with or without IFNγ; assay type: cell-based, human; conditions: TLR agonist alone
Procedure: (§1) Stained cells were collected on the FACSCalibur instrument (BD Biosciences) and analyzed with FlowJo 8.8.6 software (TreeStar, Ashland, Oreg.). Analyses were conducted on live cells (95%) as defined by forward and side-angle scatter. Gates were set based on isotype-matched (ISO) controls or fluorescence-minus-one (FMO) controls.
(§2) These were used with or without rh-IFNγ (1000 IU/mL; PeproTech). After stimulation, cells were detached using Accutase.
(§3) Cells were fixed and permeablilized using the BD Cytofix/Cytoperm kit and then stained with the indicated antibodies. Staining antibodies: CCL2-PE, CCL3-PE, CCL4-PE, CCL5-PE, CXCL10-PE (BD Pharmingen), CXCL9-PE, CXCL12-APC (R&D Systems), IgG1-PE, and IgG2α-PE (Caltag). Flow cytometric analyses were conducted as described.

[2] = test system: DM13 cells; experiment: TLR agonist dose response assay, CXCL10 producing cells by flow cytometry, constant IFNγ; assay type: cell-based, human; conditions: for optimal concentration for CXCL10 production: constant concentration of IFNγ; for effect on CXCL10 induction: in the presence of IFNγ, even at much higher concentrations than in prior experiments
Procedure: FIGS. 3A-3D. […] Melanoma cells were analyzed for induced chemokine production after overnight stimulation with the indicated TLR agonists with (+) or without (−) IFNγ. FIG. 3A-FIG. 3B (12 panels/images each). […] Scale bars represent 100 μm. FIG. 3C. Graphic illustration of ELISA assays to detect CXCL10 from supernatants of stimulated melanoma cells DM13 (left) and VMM1 (right). FIG. 3D. TLR agonist dose response assay. […] Data are from 2 independent experiments.
as §2, §3

[3] = test system: breast cancer cell lines; experiment: CXCL10 production by breast cancer cell lines, flow cytometry; assay type: cell-based, human; conditions: n=4; printed 'LPS, PAM3CSK4, and MALP-2+IFNγ', +IFNγ may apply to all three
Procedure: Breast cancer cells were stimulated with TLR agonists overnight alone or in combination with IFNγ (IFNγ stimulation indicated as +). CXCL10 production was assessed by flow cytometry from the indicated breast cancer cell lines (n=4).

[4] = test system: cells from freshly resected human melanoma metastases; experiment: CXCL10 production by cells of freshly resected melanoma metastases, flow cytometry; assay type: cell-based; conditions: patients 1-3 (FIG. 6A)
Text: FIGS. 6A-6E. Patient melanomas generate CXCL10 in response to TLR2/6 agonist and IFNγ. […] Cell subsets were defined as: melanoma (CD45^negS100^+), endothelial (S100^negCD45^negCD105^+), B-cell (CD20^+), DC (CD11c^+HLADR^+), macrophage (CD14^+), NK-cell (CD56^+) and T-cell (CD3^+). FIG. 6A. The percent of melanoma cells that are CXCL10^+ from patient 1 (top), patient 2 (middle) and patient 3 (bottom) tumors after stimulation with the indicated conditions (left panel). MFI for CXCL10 expression of melanoma cells from patient 1 melanoma (top) and patient 2 melanoma (middle) patient 3 melanoma (bottom) (right panel). FIG. 6B-FIG. 6D. […] Graph of CXCL10 measured by ELISA assay, cells are from patient 1 tumor.
Having observed production of CCL3 and CXCL10 by cultured human melanoma cell lines in vitro, we asked whether the same would be observed with melanoma cells isolated from fresh surgically-excised human metastases. TLR2 and TLR6 are expressed on some immune cell subsets (31; 32), thus we also assessed whether TLR2/6 agonists and IFNγ may impact CXCL10 production from immune cell subsets in patient tumor specimens. […] The percentage of live cells from tumor assessed by viability marker were approximately 60%, 50%, 70%, and 40% for patients 1-4 respectively (data not shown).

[5] = test system: 21 melanoma cell lines; experiment: TLR2 and TLR6 staining by flow cytometry with or without IFNγ; assay type: cell-based, human; conditions: IFNγ stimulation, data not shown
Procedure: Melanoma cell lines were seeded into 6-well plates at 1×10^6 cells/well in RPMI and stimulated overnight in the presence or absence of recombinant human IFNγ (rh-IFNγ, 1000 IU/mL; PeproTech, Rocky Hill, N.J.). After stimulation, cells were detached using Accutase (Millipore, Billerica, Mass.), stained with indicated antibodies and fixed using Cytofix (BD Biosciences, San Jose, Calif.). Surface staining antibodies: TLR2-Alexa647, Streptavidin-PE (BD Pharmigen, San Jose, Calif.), TLR6-Biotin (eBioscience, San Diego, Calif.), TLR4-APC (R&D Systems, Minneapolis, Minn.). Intracellular staining: cells were fixed and permeabilized using the BD Cytofix/Cytoperm kit (BD Biosciences) and stained with appropriate antibodies: TLR7-CFS, IgG2α-CFS (R&D Systems), TLR3-PE, TLR9-APC (eBioscience), TLR8-Alexa488 (Dendritics, San Diego, Calif.), IgG1-PE, and IgG2α-PE (Caltag, Towcester, UK).
as §1

[6] = test system: cells from fresh surgically isolated melanoma metastases; experiment: CXCL10 ELISA of supernatants of stimulated cells from fresh melanoma metastases; assay type: cell-based, human; conditions: patient 1 tumor (FIG. 6E)
Procedure: Melanoma cell lines or cells from patient samples were stimulated with TLR agonists as described, but without GolgiStop. Media containing the cell-secreted chemokines were collected and centrifuged to remove cell debris. CXCL10 was measured using the BD OptEIA human IP-10 ELISA Set with BD OptEIA buffers (BD Biosciences).

[7] = test system: melanoma cell lines VMM1, DM13, DM93 and DM122; experiment: Intracellular CXCL10 staining by flow cytometry after overnight stimulation with TLR agonists with or without IFNγ; assay type: cell-based, human; conditions: averaged across the four melanoma lines, flow cytometry (FIG. 2B)
Procedure: as §1, §2, §3

[8] = test system: melanoma cell lines VMM1, DM13, DM93 & VMM39; experiment: Gene expression profiling (gene array) of melanoma cell lines after IFNγ or TLR2/6 agonist + IFNγ; assay type: cell-based, human; conditions: Vs No treatment; Anova p≤0.005, matched comparisons
Procedure: To assess global effects of TLR2/6 agonists and IFNγ stimulation on melanoma, gene expression profiling of melanoma cell lines was performed.

[9] = test system: lung cancer cell lines; experiment: CXCL10 production by lung cancer cell lines, flow cytometry; assay type: cell-based, human; conditions: lung cancer cell lines n=8 (FIG. 16)
Procedure: FIG. 16 (line graph): Treatment of Lung Cancer cells with TLR1/2 agonists-TLR1/2 agonists can induce some CXCL10 production from lung cancer cell lines. Lung cancer cells were stimulated with TLR agonists overnight alone or in combination with IFNγ (IFNγ stimulation indicated as +). CXCL10 production was assessed by flow cytometry from the indicated lung cancer cell lines (n=8).

“macrophage-activating lipopeptide 2 [MALP-2]” was tested, and the chemokine production [1] was “little chemokine production” and the “optimal concentration for CXCL10 production” value [2] was 100 ng/mL.
`CC(C)Cn1cnc2c(N)nc3ccccc3c21` [imiquimod] was tested, and the chemokine production [1] was “little chemokine production” and the “effect on CXCL10 induction” value [2] was “little effect”.
With lipopolysaccharide [LPS] the chemokine production [1] was “little chemokine production”, the “concentration inducing CXCL10 at levels comparable to MALP-2 or FSL-1 and IFNγ” value ([2]; +IFNγ (FIG. 3D)) was 100 µg/mL and the “concentration inducing comparable levels of CXCL10” value ([2]; in combination with IFNγ, compared with TLR2/6 agonists) was no less than 100 µg. For the same molecule, the “cell lines with induced CXCL10 production” value [3] was 2/4.
poly-ICLC was tested, and the chemokine production [1] was “little chemokine production” and the “effect on CXCL10 induction” value [2] was “little effect”.
In the case of “interferon gamma [IFNγ, recombinant human IFNγ (PeproTech), used at 1000 IU/mL]”, the “CXCL10 production by melanoma cells (S100+CD45neg), percentage of CXCL10+ cells and MFI” value [4] is reported as “produced CXCL10”, the “expression of TLR2 or TLR6” value [5] is reported as “neither was impacted” and the CXCL10 in supernatants [6] is reported as roughly 400 pg/mL. For the same molecule, the “percent of cells producing CXCL10” value [7] was 7%, the “fold change of gene induction, CXCL9” value [8] was 20.7 fold change and the “fold change of gene induction, CXCL10” value [8] was 36.5 fold change. For the same molecule, the “fold change of gene induction, GBP1” value [8] was 50.6 fold change, the “fold change of gene induction, GBP4” value [8] was 84.9 fold change and the “fold change of gene induction, IFI30” value [8] was 14.4 fold change. For the same molecule, the “fold change of gene induction, IFITM1” value [8] was 14.4 fold change, the “fold change of gene induction, IRF1” value [8] was 30.2 fold change and the “fold change of gene induction, OAS2” value [8] was 24.1 fold change. The “fold change of gene induction, TNFSF10” value [8] was 25.7 fold change and the “fold change of gene induction, XAF1” value [8] was 22.8 fold change.
Pam3CysSerLys4 [Pam3CSK4] was tested, and the “cell lines with induced CXCL10 production” value [3] was 2/4 and the CXCL10 production [9] was “some CXCL10 production can be induced”.
“fibroblast-stimulating lipopeptide-1 [FSL-1]” was tested, and the chemokine production [1] was “little chemokine production” and the “optimal concentration for CXCL10 production” value [2] was 5000 ng/mL.
